Data taken from ChEMBL document CHEMBL5346940, “Design, synthesis and biological evaluation of dual Topo II/HDAC inhibitors bearing pyrimido[5,4-b]indole and pyrazolo[3,4-d]pyrimidine motifs” (Eur J Med Chem, 2023).
Active and inactive are the calls of the source. The calls are words filed in the database; no cut-off is given here.

Tests used:
MCF7 [1] = assay: Induction of apoptosis in human MCF7 cells assessed as appearance of rounded cells at 10 uM incubated for 48 hrs by AO/EB staining based fluorescence microscopic analysis; format: functional, cell-based
MCF7 [2] = assay: Induction of apoptosis in human MCF7 cells assessed as viable cells at 5 uM incubated for 48 hrs by AnnexinV-FITC/propidium iodide staining based flow cytometry analysis (reference value: 99.2 %); format: functional; conditions: read-out: Activity
MCF7 [3] = assay: Induction of apoptosis in human MCF7 cells assessed as viable cells at 20 uM incubated for 48 hrs by AnnexinV-FITC/propidium iodide staining based flow cytometry analysis (reference value: 99.2 %); format: functional; conditions: read-out: Activity
MCF7 [4] = assay: Induction of apoptosis in human MCF7 cells assessed as viable cells at 10 uM incubated for 48 hrs by AnnexinV-FITC/propidium iodide staining based flow cytometry analysis (reference value: 99.2 %); format: functional; conditions: read-out: Activity
MCF7 [5] = assay: Induction of apoptosis in human MCF7 cells assessed as late apoptotic cells at 5 uM incubated for 48 hrs by AnnexinV-FITC/propidium iodide staining based flow cytometry analysis (reference value: 0.015 %); format: functional
MCF7 [6] = assay: Induction of apoptosis in human MCF7 cells assessed as cell depletion at 10 uM incubated for 48 hrs by AO/EB staining based fluorescence microscopic analysis; format: functional
MCF7 [7] = assay: Induction of apoptosis in human MCF7 cells assessed as necrotic cells at 5 uM incubated for 48 hrs by AnnexinV-FITC/propidium iodide staining based flow cytometry analysis (reference value: 0.55 %); format: functional
MCF7 [8] = assay: cells; format: functional; conditions: Homo sapiens, time 48 hrs
Description: Inhibition of cell migration in human MCF7 cells assessed as reduction in cell migration at 1 uM measured for 48 hrs by wound healing assay based microscopic analysis (Rvb = 70.25%)

MCF7 [9] = assay: Induction of apoptosis in human MCF7 cells assessed as early apoptotic cells at 20 uM incubated for 48 hrs by AnnexinV-FITC/propidium iodide staining based flow cytometry analysis (reference value: 0.28 %); format: functional
MCF7 [10] = assay: Induction of apoptosis in human MCF7 cells assessed as early apoptotic cells at 5 uM incubated for 48 hrs by AnnexinV-FITC/propidium iodide staining based flow cytometry analysis (reference value: 0.28 %); format: functional
MCF7 [11] = assay: Induction of apoptosis in human MCF7 cells assessed as cell shrinkage at 10 uM incubated for 48 hrs by AO/EB staining based fluorescence microscopic analysis; format: functional
MCF7 [12] = assay: Induction of apoptosis in human MCF7 cells assessed as late apoptotic cells at 10 uM incubated for 48 hrs by AnnexinV-FITC/propidium iodide staining based flow cytometry analysis (reference value: 0.015 %); format: functional
U-937 = assay: Antiproliferative activity against human U-937 cells assessed as reduction in cell viability measured for 48 hrs by MTT assay; format: functional, cell-based; conditions: U-937, 48 h
MCF7 [13] = assay: Induction of apoptosis in human MCF7 cells assessed as late apoptotic cells at 20 uM incubated for 48 hrs by AnnexinV-FITC/propidium iodide staining based flow cytometry analysis (reference value: 0.015 %); format: functional
MGC-803 = assay: Antiproliferative activity against human MGC-803 cells assessed as reduction in cell viability measured for 48 hrs by MTT assay; format: functional, cell-based; conditions: MGC-803, 48 h
MCF7 [14] = assay: Inhibition of cell migration in human MCF7 cells assessed as reduction in cell migration at 5 uM measured for 48 hrs by wound healing assay based microscopic analysis (reference value: 70.25%); format: functional
Histone deacetylase = assay: Inhibition of HDAC in human HeLa nuclear extract measured after 30 mins by fluorescence based assay; format: cell-free
MCF7 [15] = assay: Induction of apoptosis in human MCF7 cells assessed as necrotic cells at 10 uM incubated for 48 hrs by AnnexinV-FITC/propidium iodide staining based flow cytometry analysis (reference value: 0.55 %); format: functional
[16] = molecular target: DNA topoisomerase 2-alpha (Homo sapiens) (UniProt P11388); assay: Inhibition of human topoisomerase 2 assessed as relaxation of pBR322 plasmid DNA at 100 uM measured after 30 mins by ethidium bromide staining based UV transilluminator analysis
MCF7 [17] = assay: Induction of apoptosis in human MCF7 cells assessed as necrotic cells at 20 uM incubated for 48 hrs by AnnexinV-FITC/propidium iodide staining based flow cytometry analysis (reference value: 0.55 %); format: functional
[18] = molecular target: T1, DNA topoisomerase 1 (Homo sapiens) (UniProt P11387); assay: Inhibition of human topoisomerase 1 assessed as relaxation of pBR322 plasmid DNA at 100 uM measured after 30 mins by agarose gel electrophoresis analysis
T1 sequence (whole entry): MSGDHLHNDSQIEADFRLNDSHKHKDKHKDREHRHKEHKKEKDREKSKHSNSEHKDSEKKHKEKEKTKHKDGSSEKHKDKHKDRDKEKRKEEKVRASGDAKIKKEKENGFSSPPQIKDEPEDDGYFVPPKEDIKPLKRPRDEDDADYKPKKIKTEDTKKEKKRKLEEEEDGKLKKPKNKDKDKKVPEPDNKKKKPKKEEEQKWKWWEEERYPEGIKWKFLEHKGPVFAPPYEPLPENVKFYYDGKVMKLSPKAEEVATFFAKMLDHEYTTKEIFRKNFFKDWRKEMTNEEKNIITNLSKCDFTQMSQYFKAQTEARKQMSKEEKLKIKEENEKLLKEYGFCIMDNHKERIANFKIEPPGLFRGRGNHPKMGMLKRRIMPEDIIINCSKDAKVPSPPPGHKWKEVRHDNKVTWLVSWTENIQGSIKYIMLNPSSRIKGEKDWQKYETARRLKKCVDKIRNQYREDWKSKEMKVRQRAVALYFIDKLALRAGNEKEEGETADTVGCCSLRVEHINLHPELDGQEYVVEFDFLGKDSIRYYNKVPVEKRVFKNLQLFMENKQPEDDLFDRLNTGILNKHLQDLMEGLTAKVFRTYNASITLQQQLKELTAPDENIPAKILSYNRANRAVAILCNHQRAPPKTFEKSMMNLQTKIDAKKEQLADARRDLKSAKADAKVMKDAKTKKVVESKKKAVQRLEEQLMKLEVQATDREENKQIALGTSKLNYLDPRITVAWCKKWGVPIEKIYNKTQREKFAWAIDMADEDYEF

MCF7 [19] = assay: Antiproliferative activity against human MCF7 cells assessed as reduction in cell viability measured for 48 hrs by MTT assay; format: functional, cell-based; conditions: MCF7, 48 h
NIH3T3 = assay: Antiproliferative activity against mouse 3T3 cells assessed as reduction in cell viability at 100 uM measured for 48 hrs by MTT assay relative to control; format: toxicity, cell-based; conditions: nih3t3, 48 h
MCF7 [20] = assay: cells; format: functional; conditions: Homo sapiens, time 48 hrs; remark: listed apart in the source
Description: Inhibition of cell migration in human MCF7 cells assessed as reduction in cell migration at 2.5 uM measured for 48 hrs by wound healing assay based microscopic analysis (Rvb = 70.25%)

MCF7 [21] = assay: Induction of apoptosis in human MCF7 cells assessed as early apoptotic cells at 10 uM incubated for 48 hrs by AnnexinV-FITC/propidium iodide staining based flow cytometry analysis (reference value: 0.28 %); format: functional
[22] = molecular target: DNA topoisomerase 2-alpha (Homo sapiens) (UniProt P11388); assay: Poison activity at human topoisomerase 2 assessed as stabilization of enzyme-DNA cleavage complex by measuring linear DNA formation at 100 uM incubated for 6 mins by EtBr staining based UV light analysis

DNA topoisomerase 2-alpha (Homo sapiens), sequence (P11388 whole entry): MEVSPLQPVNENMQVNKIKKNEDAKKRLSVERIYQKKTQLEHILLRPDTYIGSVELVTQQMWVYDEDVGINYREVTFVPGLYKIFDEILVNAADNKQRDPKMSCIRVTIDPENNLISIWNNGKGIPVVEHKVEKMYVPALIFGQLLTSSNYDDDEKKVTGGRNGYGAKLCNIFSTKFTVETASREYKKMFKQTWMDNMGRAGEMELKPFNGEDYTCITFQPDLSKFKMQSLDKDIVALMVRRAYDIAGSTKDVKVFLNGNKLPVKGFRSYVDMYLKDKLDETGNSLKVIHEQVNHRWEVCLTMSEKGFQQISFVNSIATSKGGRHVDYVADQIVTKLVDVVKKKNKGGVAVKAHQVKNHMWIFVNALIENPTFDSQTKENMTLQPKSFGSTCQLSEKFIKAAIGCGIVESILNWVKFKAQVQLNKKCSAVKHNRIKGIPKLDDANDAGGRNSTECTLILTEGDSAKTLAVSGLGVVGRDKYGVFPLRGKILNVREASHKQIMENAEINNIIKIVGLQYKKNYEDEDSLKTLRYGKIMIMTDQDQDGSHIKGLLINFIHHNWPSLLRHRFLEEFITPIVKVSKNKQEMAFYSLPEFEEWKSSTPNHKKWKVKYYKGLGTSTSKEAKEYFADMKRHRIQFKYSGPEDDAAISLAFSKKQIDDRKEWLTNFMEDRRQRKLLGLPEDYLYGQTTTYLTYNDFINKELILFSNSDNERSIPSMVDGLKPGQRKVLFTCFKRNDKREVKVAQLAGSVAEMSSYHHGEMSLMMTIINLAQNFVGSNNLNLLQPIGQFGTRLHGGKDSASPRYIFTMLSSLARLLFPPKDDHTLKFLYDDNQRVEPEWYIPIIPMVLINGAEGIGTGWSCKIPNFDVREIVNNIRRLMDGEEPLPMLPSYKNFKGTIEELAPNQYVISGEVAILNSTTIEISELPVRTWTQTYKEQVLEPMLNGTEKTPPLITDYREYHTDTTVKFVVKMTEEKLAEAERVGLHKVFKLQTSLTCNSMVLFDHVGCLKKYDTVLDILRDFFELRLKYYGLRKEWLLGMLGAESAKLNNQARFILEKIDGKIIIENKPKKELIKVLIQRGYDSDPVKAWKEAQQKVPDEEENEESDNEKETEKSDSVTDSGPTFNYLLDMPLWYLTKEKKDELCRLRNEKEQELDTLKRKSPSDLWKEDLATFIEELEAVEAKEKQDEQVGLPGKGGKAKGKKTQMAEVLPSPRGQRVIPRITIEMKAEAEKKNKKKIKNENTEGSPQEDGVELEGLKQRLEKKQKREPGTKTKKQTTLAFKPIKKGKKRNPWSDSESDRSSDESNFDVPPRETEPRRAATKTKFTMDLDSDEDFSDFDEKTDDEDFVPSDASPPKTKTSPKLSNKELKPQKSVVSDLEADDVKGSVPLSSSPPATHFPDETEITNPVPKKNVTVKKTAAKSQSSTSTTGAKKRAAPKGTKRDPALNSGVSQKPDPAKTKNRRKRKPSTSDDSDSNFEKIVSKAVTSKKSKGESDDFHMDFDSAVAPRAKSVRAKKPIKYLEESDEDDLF

Row | SMILES | Activity (MCF7 [1]) | viability at 5 µM (MCF7 [2]) [%] | viability at 20 µM (MCF7 [3]) [%] | viability at 10 µM (MCF7 [4]) [%] | Activity (MCF7 [5]) [%] | Activity (MCF7 [6]) | Activity (MCF7 [7]) [%] | inhibition at 1 µM (MCF7 [8]) [%] | Activity (MCF7 [9]) [%] | Activity (MCF7 [10]) [%] | Activity (MCF7 [11]) | Activity (MCF7 [12]) [%] | IC50 (U-937) [µM] | Activity (MCF7 [13]) [%] | IC50 (MGC-803) [µM] | inhibition at 5 µM (MCF7 [14]) [%] | IC50 (Histone deacetylase) [µM] | Activity (MCF7 [15]) [%] | topoisomerase II inhibition (active/inactive) [16] | Activity (MCF7 [17]) [%] | also measured
1 | CCn1c(SCCCCC(=O)NO)nc2c([nH]c3ccccc32)c1=O | Active | 93.4 | 53.7 | 78.7 | 1.16 | Active | 0.6 | 65.4 | 28.8 | 4.86 | Active | 6.9 | 24.6 | 17.1 | 12.3 | 29.7 | 5.9 | 0.3 | Active | 0.48 | inhibition (active/inactive call) [18]: Active; IC50 (MCF7 [19]): 18.3 µM; Activity (NIH3T3): 38.7%; inhibition at 2.5 µM (MCF7 [20]): 56.4%; Activity (MCF7 [21]): 14.1%
2 | O=C(CCCCSc1nc2c([nH]c3ccccc32)c(=O)[nH]1)NO | Active | 83.4 | 45.5 | 60.6 | 5.88 | Active | 0.3 | 58.5 | 29 | 10.4 | Active | 12.1 | 28.5 | 24.9 | 9.59 | 19.3 | 4.67 | 0.67 | Active | 0.54 | Activity [22]: Active; inhibition (active/inactive call) [18]: Active; Activity (NIH3T3): 7.62%; inhibition at 2.5 µM (MCF7 [20]): 32.3%; Activity (MCF7 [21]): 26.6%
